Reference: PubChem BioAssay AID652076 (The Scripps Research Institute Molecular Screening Center, 2013)
Calls of active or inactive are those of the source. No rule for the calls is given here.

Target: Cytochrome P450 1A2 (Homo sapiens) (UniProt P05177)
Test: CYP1A2 enzyme inhibition, late-stage follow-up, biochemical (AID 652076)
Conditions: Human CYP inhibition panel, LC-MS/MS marker substrate metabolism

Cytochrome P450 1A2 (Homo sapiens), sequence (P05177 whole entry, looked up): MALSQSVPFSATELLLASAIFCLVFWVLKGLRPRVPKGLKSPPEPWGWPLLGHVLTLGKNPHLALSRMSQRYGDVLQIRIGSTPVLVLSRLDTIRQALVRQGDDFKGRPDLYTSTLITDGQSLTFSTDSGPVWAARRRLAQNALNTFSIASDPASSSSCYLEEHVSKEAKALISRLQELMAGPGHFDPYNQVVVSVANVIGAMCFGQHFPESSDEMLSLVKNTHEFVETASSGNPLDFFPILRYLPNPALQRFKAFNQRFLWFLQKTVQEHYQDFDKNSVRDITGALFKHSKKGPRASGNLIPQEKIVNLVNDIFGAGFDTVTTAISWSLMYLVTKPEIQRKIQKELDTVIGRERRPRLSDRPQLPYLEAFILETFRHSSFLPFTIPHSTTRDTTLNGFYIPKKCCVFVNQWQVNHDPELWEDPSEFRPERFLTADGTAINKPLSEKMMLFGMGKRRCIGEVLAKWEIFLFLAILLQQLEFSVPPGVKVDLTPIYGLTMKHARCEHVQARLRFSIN

## COC(=O)c1cc(Br)cnc1N1CCC(NC2CCCCC2)C(O)C1 (configuration not stated)
  outcome: active
CYP1A2, at 10 µM, hits give high values
  inhibition: -9%
